Experimental data from US20070093520A1, “Method of treatment of diarrhea-predominant irritable bowel syndrome in a subject” (priority 2005, published 2007).

Test system: diarrhea-predominant IBS subjects
Test: 3007 Study: open-label 52-week safety study, adverse events and withdrawals
Conditions: Overall

Cc1nccn1C[C@H]1CCc2c(c3cccc4c3n2CCC4)C1=O [cilansetron, (R)-(−)-4,5,6,8,9,10-hexahydro-10-[(2-methyl-1H-imidazol-1-yl)methyl]-11H-pyrido-[3,2,1-jk]-carbazol-11-one]
15 (3%) n (%): TEAE: Neoplasms Benign, Malignant and Unspecified (Incl Cysts and Polyps)
21 (4%) n (%): TEAE: Metabolism and Nutrition Disorders
3 (2%) n (%): TEAE: Prostate and Seminal Vesicles Infections and Inflammations* | TEAE: Prostatitis*
33 (6%) n (%): TEAE: Musculoskeletal and Connective Tissue Signs and Symptoms NEC | TEAE: Nausea and Vomiting Symptoms
10 (2%) n (%): TEAE: Muscle Cramps | TEAE: Muscle, Tendon and Ligament Injuries
24 (4%) n (%): TEAE: Reproductive System and Breast Disorders
25 (5%) n (%): TEAE: Nausea
5 (<1%) n (%): TEAE: Migraine Headaches | TEAE: Migraine NOS | TEAE: Seasonal Allergy
4 (<1%) n (%): TEAE: Osteoarthropathies | TEAE: Palpitations | TEAE: Plantar Fasciitis | TEAE: Proctalgia | TEAE: Pruritus NEC | TEAE: Pruritus NOS | TEAE: Rate and Rhythm Disorders NEC | TEAE: Renal Function Analyses | TEAE: Rhinitis Allergic NOS
87 (16%) n (%): TEAE: Musculoskeletal and Connective Tissue Disorders
32 (6%) n (%): TEAE: Psychiatric Disorders
1 (<1%) n (%): TEAE: Memory Loss (Excl Dementia) | TEAE: Meniere's Disease | TEAE: Menstruation Irregular* | TEAE: Menstruation with Decreased Bleeding* | TEAE: Mental Disorders NEC | TEAE: Mental Status Changes | TEAE: Middle Ear Disorders NEC | TEAE: Motion Sickness | TEAE: Movement Disorder NOS | TEAE: Muscle Infections and Inflammations | TEAE: Muscle Spasms | TEAE: Muscle Tone Abnormalities | TEAE: Musculoskeletal Chest Pain | TEAE: Musculoskeletal and Soft Tissue Imaging Procedures | TEAE: Myasthenia Gravis | TEAE: Mycoplasma Infections | TEAE: Myeloradiculopathy | TEAE: Myocardial Infarction | TEAE: Myositis | TEAE: Nail Infection NOS | TEAE: Nail and Nail Bed Conditions (Excl Infections and Infestations) | TEAE: Neck Pain | TEAE: Neuromuscular Junction Dysfunction | TEAE: Night Cramps | TEAE: Non-Accidental Overdose | TEAE: Normal Pregnancy, Labour and Delivery* | TEAE: Ocular Disorders NEC | TEAE: Oedema NOS | TEAE: Osteopenia | TEAE: Otitis Media NOS | TEAE: Ovarian Cancer NOS* | TEAE: Ovarian Cystadenofibroma* | TEAE: Ovarian Neoplasms Benign* | TEAE: Ovarian Neoplasms Malignant (Excl Germ Cell)* | TEAE: Overdoses | TEAE: Panic Attack | TEAE: Panic Symptoms | TEAE: Papulosquamous Conditions | TEAE: Paranasal Sinus Hypersecretion | TEAE: Parkinson's Disease NOS | TEAE: Parkinson's Disease and Parkinsonism | TEAE: Partial Vision Loss | TEAE: Penile Disorders NEC (Excl Erection and Ejaculation)* | TEAE: Penile Haemorrhage* | TEAE: Perception Disturbances | TEAE: Periorbital Haematoma | TEAE: Peripheral Embolism NOS | TEAE: Peripheral Embolism and Thrombosis | TEAE: Peripheral Swelling | TEAE: Pneumonia Mycoplasmal | TEAE: Polydipsia | TEAE: Polyuria | TEAE: Popliteal Bursitis | TEAE: Posterior Capsule Opacification | TEAE: Postnasal Drip | TEAE: Pregnancy NOS* | TEAE: Pregnancy, Puerperium and Perinatal Conditions | TEAE: Premenopause* | TEAE: Premenstrual Syndrome* | TEAE: Productive Cough | TEAE: Proteinuria | TEAE: Pruritus Ani | TEAE: Psoriasis | TEAE: Psychotic Disorder NEC | TEAE: Psychotic Disorder NOS | TEAE: Rectal Cramps | TEAE: Rectal Disorder NOS | TEAE: Red Blood Cell Analyses | TEAE: Red Blood Cells Urine | TEAE: Refractive Errors NOS | TEAE: Refractive and Accommodative Disorders | TEAE: Renal Bruit | TEAE: Reproductive Organ and Breast Histopathology Procedures | TEAE: Respiratory Tract Infection NOS | TEAE: Retinal Detachment | TEAE: Retinal Structural Change, Deposit and Degeneration | TEAE: Rheumatoid Arthritis | TEAE: Rheumatoid Arthritis Aggravated | TEAE: Rhinitis Seasonal | TEAE: Rib Fracture | TEAE: Road Traffic Accident | TEAE: Rosacea | TEAE: Rosaceas | TEAE: Rotator Cuff Syndrome | TEAE: Seizures and Seizure Disorders NEC
11 (2%) n (%): TEAE: Muscle Related Signs and Symptoms NEC | TEAE: Non-Site Specific Injuries NEC
12 (2%) n (%): TEAE: Pain and Discomfort NEC
3 (<1%) n (%): TEAE: Menstruation with Increased Bleeding* | TEAE: Metabolic Bone Disorders | TEAE: Mononeuropathies | TEAE: Muscle Pains | TEAE: Neutrophil Count Decreased | TEAE: Osteoarthritis Aggravated | TEAE: Osteoporosis NOS | TEAE: Pain NOS | TEAE: Protein Urine Present | TEAE: Pyrexia | TEAE: Renal Lithiasis | TEAE: Reproductive Tract Signs and Symptoms NEC | TEAE: Rhinitis NOS
8 (1%) n (%): TEAE: Muscle Strain | TEAE: Nasal Congestion and Inflammations | TEAE: Non-Site Specific Procedural Complications | TEAE: Rashes, Eruptions and Exanthems NEC | TEAE: Rectal Haemorrhage
46 (9%) n (%): TEAE: Respiratory, Thoracic and Mediastinal Disorders
28 (5%) n (%): TEAE: Nasopharyngitis | TEAE: Rhinoviral Infections
6 (1%) n (%): TEAE: Metabolism Tests NEC | TEAE: Neurological Signs and Symptoms NEC | TEAE: Oedema Peripheral | TEAE: Pain in Limb | TEAE: Pharyngitis | TEAE: Post Procedural Pain | TEAE: Rash NOS
7 (1%) n (%): TEAE: Oedema NEC | TEAE: Pharyngitis Streptococcal
2 (<1%) n (%): TEAE: Menorrhagia* | TEAE: Menstruation and Uterine Bleeding NEC* | TEAE: Mineral and Electrolyte Analyses | TEAE: Monoarthritis | TEAE: Monocyte Count Decreased | TEAE: Monocyte Count Increased | TEAE: Myalgia | TEAE: Nail Fungal Infection NOS | TEAE: Neoplasms Benign Site Unspecified NEC | TEAE: Nitrite Urine Present | TEAE: Ocular Nerve and Muscle Disorders | TEAE: Ophthalmic Function Diagnostic Procedures | TEAE: Oral Dryness and Saliva Altered | TEAE: Paraesthesias and Dysaesthesias | TEAE: Pelvic Pain NOS | TEAE: Peripheral Vascular Disorders NEC | TEAE: Pneumonia NOS | TEAE: Post Procedural Discomfort | TEAE: Purine Metabolism Disorders NEC | TEAE: Rash Macular | TEAE: Rectal Tenesmus | TEAE: Respiratory Tract Congestion | TEAE: Respiratory Tract Disorders NEC | TEAE: Rheumatoid Arthropathies
9 (2%) n (%): TEAE: Paranasal Sinus Disorders (Excl Infections and Neoplasms) | TEAE: Physical Examination Procedures
17 (3%) n (%): TEAE: Renal and Urinary Disorders
64 (12%) n (%): TEAE: Nervous System Disorders
